Results reported in PMC12888861, “Antibacterial activity of enmetazobactam against Acinetobacter spp.: a molecular dissection of mechanism of action and resistance determinants” (Antimicrobial Agents and Chemotherapy, 2025).
Read-outs that look alike come from different tables or passages of the source.

Test system: A. non-baumannii isolates (n = 87)
Assay: MIC, broth microdilution (EUCAST), A. non-baumannii isolates
Assay type: cell-based, Acinetobacter spp. (non-baumannii)
Settings: for MIC: in combinations ETZ fixed at 8 mg/L
From the text: The bacterial strains used in this study comprised 208 clinical isolates from the Spanish National Acinetobacter spp. 2020 Multicenter Collection, which was previously characterized in detail by our research group, including whole-genome sequencing, phylogenetics studies, clonal dynamics, and resistance mechanisms ([2], [29]). Additionally, a collection of A. baumannii ATCC 17978 transformants coding the blaOXA-23, blaOXA-24/40, blaOXA-51, blaOXA-58, blaOXA-143, and blaOXA-201 genes, previously constructed and described by our group ([30]), was used to determine the activity of enmetazobactam against strains carrying the main CHDLs of A. baumannii.
The antimicrobial susceptibility of the 208 Acinetobacter spp. isolates was assessed using the broth microdilution method, as described in the European Committee on Antimicrobial Susceptibility Testing (EUCAST) v.15 guidelines (http://www.eucast.org/clinical_breakpoints). […] MICs for enmetazobactam alone were assessed as well. […] Subsequently, MIC testing was also conducted with a collection of A. baumannii ATCC 17978 transformants expressing clinically relevant OXA-like carbapenemase genes.
The A. baumannii ATCC 19606 strain was used as the reference strain in all susceptibility experiments, in duplicate assays. Antibiotics were purchased from Sigma-Aldrich, except enmetazobactam and durlobactam, which were obtained from Advanz Pharma and MedChemExpress, respectively.

[1] = Acinetobacter, A. non-baumannii isolates (n=87), ETZ fixed 8 mg/L in combinations
[2] = […], ETZ fixed 8 mg/L in combinations

CO/N=C(\C(=O)N[C@@H]1C(=O)N2C(C(=O)[O-])=C(C[N+]3(C)CCCC3)CS[C@H]12)c1csc(N)n1 [cefepime]
MIC distribution 0.12: 1.1 | MIC (Acinetobacter baylyi, isolate NO-Ab27, Acinetobacter baylyi, read-out: MIC): 0.5 µg/mL | MIC (Acinetobacter beijerinckii, isolate NO-Ab122, Acinetobacter beijerinckii, read-out: MIC): 2 µg/mL | MIC (Acinetobacter bereziniae, isolate NO-Ab70, Acinetobacter bereziniae, read-out: MIC): 1 µg/mL | MIC (Acinetobacter bereziniae, isolate NO-Ab84, Acinetobacter bereziniae, read-out: MIC): 1 µg/mL | MIC (Acinetobacter bereziniae, isolate NO-Ab104, Acinetobacter bereziniae, read-out: MIC): 0.5 µg/mL | MIC (Acinetobacter bereziniae, isolate NO-Ab114, Acinetobacter bereziniae, read-out: MIC): 1 µg/mL | MIC (Acinetobacter bereziniae, isolate NO-Ab115, Acinetobacter bereziniae, read-out: MIC): 1 µg/mL | MIC (Acinetobacter bereziniae, isolate NO-Ab116, Acinetobacter bereziniae, read-out: MIC): 1 µg/mL | MIC (Acinetobacter bereziniae, isolate NO-Ab117, Acinetobacter bereziniae, read-out: MIC): 4 µg/mL | MIC (Acinetobacter bereziniae, isolate NO-Ab129, Acinetobacter bereziniae, read-out: MIC): 1 µg/mL | MIC (Acinetobacter bereziniae, isolate NO-Ab156, Acinetobacter bereziniae, read-out: MIC): 1 µg/mL | MIC (Acinetobacter calcoaceticus, isolate NO-Ab85, Acinetobacter calcoaceticus, read-out: MIC): 4 µg/mL | MIC (Acinetobacter calcoaceticus, isolate NO-Ab94, Acinetobacter calcoaceticus, read-out: MIC): 2 µg/mL | MIC (Acinetobacter calcoaceticus, isolate NO-Ab108, Acinetobacter calcoaceticus, read-out: MIC): 4 µg/mL | MIC (Acinetobacter calcoaceticus, isolate NO-Ab161, Acinetobacter calcoaceticus, read-out: MIC): 4 µg/mL | MIC (Acinetobacter calcoaceticus, isolate NO-Ab198, Acinetobacter calcoaceticus, read-out: MIC): 4 µg/mL | MIC (Acinetobacter calcoaceticus, isolate NO-Ab205, Acinetobacter calcoaceticus, read-out: MIC): 4 µg/mL | MIC (Acinetobacter calcoaceticus, isolate NO-Ab211, Acinetobacter calcoaceticus, read-out: MIC): 2 µg/mL | MIC (Acinetobacter courvalinii, isolate NO-Ab216, Acinetobacter courvalinii, read-out: MIC): 1 µg/mL | MIC (Acinetobacter dispersus, isolate NO-Ab2, Acinetobacter dispersus, read-out: MIC): 0.5 µg/mL | MIC (Acinetobacter guillouiae, isolate NO-Ab69, Acinetobacter guillouiae, read-out: MIC): 2 µg/mL | MIC (Acinetobacter guillouiae, isolate NO-Ab74, Acinetobacter guillouiae, read-out: MIC): 2 µg/mL | MIC (Acinetobacter haemolyticus, isolate NO-Ab92, Acinetobacter haemolyticus): 2 µg/mL | MIC (Acinetobacter haemolyticus, isolate NO-Ab177, Acinetobacter haemolyticus): 1 µg/mL | MIC (Acinetobacter haemolyticus, isolate NO-Ab217, Acinetobacter haemolyticus): 2 µg/mL | MIC (Acinetobacter johnsonii, isolate NO-Ab101, Acinetobacter johnsonii, read-out: MIC): 4 µg/mL | MIC (Acinetobacter junii, isolate NO-Ab76, Acinetobacter junii, read-out: MIC): 0.5 µg/mL | MIC (Acinetobacter junii, isolate NO-Ab77, Acinetobacter junii, OXA-24/40, read-out: MIC): 1 µg/mL | MIC (Acinetobacter lactucae, isolate NO-Ab60, Acinetobacter dijkshoorniae, read-out: MIC): 2 µg/mL | MIC (Acinetobacter lactucae, isolate NO-Ab63, Acinetobacter dijkshoorniae, read-out: MIC): 2 µg/mL | MIC (Acinetobacter lactucae, isolate NO-Ab65, Acinetobacter dijkshoorniae, read-out: MIC): 2 µg/mL | MIC (Acinetobacter lactucae, isolate NO-Ab86, Acinetobacter dijkshoorniae, read-out: MIC): 1 µg/mL | MIC (Acinetobacter lactucae, isolate NO-Ab88, Acinetobacter dijkshoorniae, read-out: MIC): 2 µg/mL | MIC (Acinetobacter lactucae, isolate NO-Ab91, Acinetobacter dijkshoorniae, read-out: MIC): 2 µg/mL | MIC (Acinetobacter lactucae, isolate NO-Ab121, Acinetobacter dijkshoorniae, read-out: MIC): 4 µg/mL | MIC (Acinetobacter lactucae, isolate NO-Ab125, Acinetobacter dijkshoorniae, read-out: MIC): 2 µg/mL | MIC (Acinetobacter lactucae, isolate NO-Ab160, Acinetobacter dijkshoorniae, read-out: MIC): 0.5 µg/mL | MIC (Acinetobacter nosocomialis, isolate NO-Ab43, Acinetobacter nosocomialis, read-out: MIC): 2 µg/mL | MIC (Acinetobacter nosocomialis, isolate NO-Ab68, Acinetobacter nosocomialis, OXA-24/40, read-out: MIC): 4 µg/mL | MIC (Acinetobacter nosocomialis, isolate NO-Ab98, Acinetobacter nosocomialis, read-out: MIC): 2 µg/mL | MIC (Acinetobacter nosocomialis, isolate NO-Ab208, Acinetobacter nosocomialis, read-out: MIC): 2 µg/mL | MIC (Acinetobacter pittii, isolate NO-Ab59, Acinetobacter pittii, read-out: MIC): 2 µg/mL | MIC (Acinetobacter pittii, isolate NO-Ab66, Acinetobacter pittii, read-out: MIC): 8 µg/mL | MIC (Acinetobacter pittii, isolate NO-Ab73, Acinetobacter pittii, read-out: MIC): 2 µg/mL | MIC (Acinetobacter pittii, isolate NO-Ab75, Acinetobacter pittii, read-out: MIC): 4 µg/mL | MIC (Acinetobacter pittii, isolate NO-Ab78, Acinetobacter pittii, read-out: MIC): 1 µg/mL | MIC (Acinetobacter pittii, isolate NO-Ab82, Acinetobacter pittii, read-out: MIC): 1 µg/mL | MIC (Acinetobacter pittii, isolate NO-Ab89, Acinetobacter pittii, read-out: MIC): 1 µg/mL | MIC (Acinetobacter pittii, isolate NO-Ab90, Acinetobacter pittii, read-out: MIC): 1 µg/mL | MIC (Acinetobacter pittii, isolate NO-Ab97, Acinetobacter pittii, read-out: MIC): 4 µg/mL | MIC (Acinetobacter pittii, isolate NO-Ab105, Acinetobacter pittii, read-out: MIC): 1 µg/mL | MIC (Acinetobacter pittii, isolate NO-Ab106, Acinetobacter pittii, read-out: MIC): 1 µg/mL | MIC (Acinetobacter pittii, isolate NO-Ab107, Acinetobacter pittii, read-out: MIC): 0.5 µg/mL | MIC (Acinetobacter pittii, isolate NO-Ab111, Acinetobacter pittii, read-out: MIC): 1 µg/mL | MIC (Acinetobacter pittii, isolate NO-Ab113, Acinetobacter pittii, read-out: MIC): 2 µg/mL | MIC (Acinetobacter pittii, isolate NO-Ab118, Acinetobacter pittii, read-out: MIC): 2 µg/mL | MIC (Acinetobacter pittii, isolate NO-Ab135, Acinetobacter pittii, read-out: MIC): 1 µg/mL | MIC (Acinetobacter pittii, isolate NO-Ab145, Acinetobacter pittii, read-out: MIC): 2 µg/mL | MIC (Acinetobacter pittii, isolate NO-Ab151, Acinetobacter pittii, read-out: MIC): 2 µg/mL | MIC (Acinetobacter pittii, isolate NO-Ab154, Acinetobacter pittii, read-out: MIC): 1 µg/mL | MIC (Acinetobacter pittii, isolate NO-Ab157, Acinetobacter pittii, read-out: MIC): 4 µg/mL | MIC (Acinetobacter pittii, isolate NO-Ab162, Acinetobacter pittii, read-out: MIC): 8 µg/mL | MIC (Acinetobacter pittii, isolate NO-Ab164, Acinetobacter pittii, read-out: MIC): 1 µg/mL | MIC (Acinetobacter pittii, isolate NO-Ab178, Acinetobacter pittii, read-out: MIC): 4 µg/mL | MIC (Acinetobacter pittii, isolate NO-Ab197, Acinetobacter pittii, read-out: MIC): 2 µg/mL | MIC (Acinetobacter proteolyticus, isolate NO-Ab99, Acinetobacter proteolyticus, read-out: MIC): 4 µg/mL | MIC (Acinetobacter proteolyticus, isolate NO-Ab102, Acinetobacter proteolyticus, read-out: MIC): 4 µg/mL | MIC (Acinetobacter proteolyticus, isolate NO-Ab210, Acinetobacter proteolyticus, read-out: MIC): 1 µg/mL | MIC (Acinetobacter radioresistens, isolate NO-Ab175, Acinetobacter radioresistens, read-out: MIC): 0.25 µg/mL | MIC (Acinetobacter radioresistens, isolate NO-Ab215, Acinetobacter radioresistens, read-out: MIC): 0.12 µg/mL | MIC (Acinetobacter ursingii, isolate NO-Ab3, Acinetobacter ursingii, read-out: MIC): 0.25 µg/mL | MIC (Acinetobacter ursingii, isolate NO-Ab64, Acinetobacter ursingii, read-out: MIC): 1 µg/mL | MIC (Acinetobacter ursingii, isolate NO-Ab87, Acinetobacter ursingii, read-out: MIC): 0.25 µg/mL | MIC (Acinetobacter ursingii, isolate NO-Ab103, Acinetobacter ursingii, read-out: MIC): 2 µg/mL | MIC (Acinetobacter ursingii, isolate NO-Ab119, Acinetobacter ursingii, read-out: MIC): 8 µg/mL | MIC (Acinetobacter ursingii, isolate NO-Ab120, Acinetobacter ursingii, read-out: MIC): 4 µg/mL | MIC (Acinetobacter ursingii, isolate NO-Ab123, Acinetobacter ursingii, read-out: MIC): 2 µg/mL | MIC (Acinetobacter ursingii, isolate NO-Ab126, Acinetobacter ursingii, read-out: MIC): 4 µg/mL | MIC (Acinetobacter ursingii, isolate NO-Ab147, Acinetobacter ursingii, read-out: MIC): 2 µg/mL | MIC (Acinetobacter ursingii, isolate NO-Ab155, Acinetobacter ursingii, read-out: MIC): 4 µg/mL | MIC (Acinetobacter ursingii, isolate NO-Ab165, Acinetobacter ursingii, read-out: MIC): 2 µg/mL | MIC (Acinetobacter ursingii, isolate NO-Ab166, Acinetobacter ursingii, read-out: MIC): 1 µg/mL | MIC (Acinetobacter ursingii, isolate NO-Ab214, Acinetobacter ursingii, read-out: MIC): 4 µg/mL | MIC (Acinetobacter ursingii, isolate NO-Ab221, Acinetobacter ursingii, read-out: MIC): 4 µg/mL | MIC (Acinetobacter ursingii, isolate NO-Ab222, Acinetobacter ursingii, read-out: MIC): 1 µg/mL | MIC (Acinetobacter, isolate NO-Ab146, Acinetobacter iwoffii, read-out: MIC): 2 µg/mL | MIC (Acinetobacter, isolate NO-Ab159, Acinetobacter iwoffii, read-out: MIC): 0.5 µg/mL | MIC50 [1]: 2 µg/mL | MIC90 [1]: 4 µg/mL | MIC distribution 0.25 [2]: 4.6 | MIC distribution 0.5 [2]: 12.6 | MIC distribution 1 [2]: 41.4 | MIC distribution 2 [2]: 73.6 | MIC distribution 4 [2]: 96.6 | MIC distribution 8 [2]: 98.9 | MIC distribution 16 [2]: 100 | MIC distribution 32 [2]: 100 | MIC distribution ≤0.06 [2]: 0
